Data taken from DBAASP.
Converted amounts (≈) assume the structure as drawn. “And” between values parts separate entries of the source, which are not always exact repeats. Identical values can stand only once.

Columns and labels:
Assay in all cases: ≥ marks a high value that may be exact or a test limit, other limits are often not marked, values filed in µg/mL are converted to µM
[1] = system: Escherichia coli ATCC 25922
[2] = system: Staphylococcus aureus ATCC 25923
[3] = system: Pseudomonas aeruginosa ATCC 27853

SMILES	MIC [1]	MIC [2] [µM]	MIC [3] [µM]
CC(C)C[C@H](NC(=O)[C@H](C)NC(=O)[C@@H](N)CCCCN)C(=O)N[C@@H](Cc1c[nH]c2ccccc12)C(=O)N[C@@H](CCCCN)C(=O)N[C@H](C(=O)N[C@@H](CC(C)C)C(=O)N[C@@H](CC(C)C)C(=O)N[C@@H](CCCCN)C(=O)N[C@@H](CCCCN)C(=O)N[C@H](C(=O)N[C@@H](CC(C)C)C(=O)N[C@@H](CCCCN)C(=O)N[C@@H](C)C(N)=O)C(C)C)[C@@H](C)O [KALWKTLLKKVLKA]	3 µM (≈ 4.92 µg/mL)	25 (≈ 41 µg/mL)	
CC[C@H](C)[C@H](NC(=O)[C@H](Cc1c[nH]c2ccccc12)NC(=O)[C@H](CCCN=C(N)N)NC(=O)[C@H](Cc1c[nH]c2ccccc12)NC(=O)[C@H](Cc1c[nH]c2ccccc12)NC(=O)[C@H](CCCN=C(N)N)NC(=O)[C@H](CCCN=C(N)N)NC(=O)[C@H](Cc1c[nH]c2ccccc12)NC(=O)[C@@H](N)CCCN=C(N)N)C(N)=O [RWRRWWRWI]	10.7 µM (≈ 16 µg/mL)		
CC(C)C[C@H](NC(=O)[C@H](CC(C)C)NC(=O)[C@H](CC(N)=O)NC(=O)[C@H](CCCCN)NC(=O)[C@H](CC(C)C)NC(=O)[C@H](CC(=O)O)NC(=O)[C@@H](N)C(C)C)C(=O)N[C@@H](CCCCN)C(=O)O [VDLKNLLK]			32 (≈ 30.1 µg/mL)
CC[C@H](C)[C@H](NC(=O)[C@@H](NC(=O)[C@@H]1CCCN1C(=O)CNC(=O)[C@@H](NC(=O)[C@@H](N)Cc1ccccc1)[C@@H](C)CC)[C@@H](C)CC)C(=O)N[C@@H](CO)C(=O)N[C@@H](C)C(=O)N[C@@H](CC(C)C)C(=O)N[C@@H](C)C(=O)N[C@@H](CO)C(=O)N[C@@H](CC(C)C)C(=O)N[C@@H](Cc1ccccc1)C(=O)NCC(N)=O [FIGPIISALASLFG]	> 60 µM	> 60	
CC[C@H](C)[C@H](NC(=O)CNC(=O)[C@H](CC(N)=O)NC(=O)[C@@H](NC(=O)[C@@H](NC(=O)CNC(=O)[C@@H](NC(=O)[C@H](CCCCN)NC(=O)[C@@H](NC(=O)CNC(=O)[C@H](CCCCN)NC(=O)CNC(=O)[C@@H](NC(=O)[C@@H](NC(=O)[C@H](CCCCN)NC(=O)[C@@H]1CCCN1C(=O)[C@H](Cc1ccccc1)NC(=O)[C@@H](NC(=O)CN)[C@@H](C)CC)[C@@H](C)CC)[C@@H](C)CC)[C@@H](C)CC)[C@@H](C)O)[C@@H](C)CC)C(C)C)C(=O)N[C@@H](CCCCN)C(=O)N[C@@H](CO)C(=O)N[C@@H](CC(C)C)C(=O)N[C@H](C(=O)N[C@@H](CCCCN)C(=O)NCC(=O)N[C@H](C(=O)NCC(=O)N[C@@H](CCSC)C(=O)N[C@@H](CCCCN)C(=O)N[C@H](C(=O)N[C@@H](Cc1ccccc1)C(=O)N[C@@H](CCCCN)C(=O)N[C@@H](C)C(=O)NCC(=O)N[C@@H](CC(C)C)C(=O)N[C@@H](CO)C(=O)N[C@@H](CC(N)=O)C(=O)N[C@H](C(=O)NCC(=O)N[C@@H](CC(N)=O)C(=O)N[C@H](C(=O)NCC(=O)N[C@H]1CSSC[C@@H](C(=O)O)NC(=O)[C@H](CCC(=O)O)NC(=O)[C@H](CC(=O)O)NC(=O)[C@H](CCC(=O)O)NC(=O)[C@H](CC(N)=O)NC1=O)[C@@H](C)O)[C@@H](C)CC)C(C)C)C(C)C)C(C)C [GIFPKIIGKGIKTGIVNGIKSLVKGVGMKVFKAGLSNIGNTGCNEDEC]	1 µM (≈ 4.9 µg/mL)		
CC[C@H](C)[C@H](NC(=O)[C@@H](NC(=O)[C@@H](NC(=O)CNC(=O)[C@H](C)NC(=O)[C@@H](NC(=O)[C@H](CC(N)=O)NC(=O)[C@@H](NC(=O)[C@H](C)NC(=O)[C@H](CC(C)C)NC(=O)[C@H](CC(N)=O)NC(=O)[C@H](CCCCN)NC(=O)[C@@H](NC(=O)[C@@H](NC(=O)[C@H](CO)NC(=O)[C@H](Cc1ccccc1)NC(=O)[C@H](Cc1ccccc1)NC(=O)CN)[C@@H](C)O)C(C)C)[C@@H](C)O)C(C)C)[C@@H](C)O)C(C)C)C(=O)N[C@@H](CC(=O)O)C(=O)N[C@H](C(=O)N[C@@H](CC(C)C)C(=O)N[C@@H](CCCCN)C(=O)N[C@H]1CSSC[C@@H](C(=O)N[C@@H](CCCN=C(N)N)C(=O)N[C@@H](CO)C(=O)O)NC(=O)CNC(=O)CNC(=O)[C@H]([C@@H](C)O)NC(=O)[C@H](C(C)C)NC(=O)[C@H](CCCCN)NC1=O)[C@@H](C)O [GFFSTVKNLATNVAGTVIDTLKCKVTGGCRS]	78 µM (≈ 249 µg/mL)		
CC(C)C[C@H](NC(=O)CN)C(=O)N[C@@H](CC(C)C)C(=O)N[C@@H](CC(=O)O)C(=O)N[C@@H](Cc1ccccc1)C(=O)N[C@@H](CC(C)C)C(=O)N[C@@H](CCCCN)C(=O)N[C@@H](C)C(=O)N[C@@H](C)C(=O)NCC(=O)N[C@@H](CCCCN)C(=O)NCC(=O)N[C@@H](CC(C)C)C(=O)N[C@H](C(=O)N[C@@H](CO)C(=O)N[C@@H](CC(N)=O)C(=O)N[C@@H](CC(C)C)C(=O)N[C@@H](CC(C)C)C(=O)N[C@@H](CCC(=O)O)C(=O)N[C@@H](CCCCN)C(N)=O)C(C)C [GLLDFLKAAGKGLVSNLLEK]	15 µM (≈ 31.3 µg/mL)	15 (≈ 31.3 µg/mL)	
CC[C@H](C)[C@H](NC(=O)CNC(=O)[C@H](CCSC)NC(=O)[C@H](CCCCN)NC(=O)[C@H](C)NC(=O)[C@H](CC(C)C)NC(=O)[C@H](CCCCN)NC(=O)[C@H](CCC(=O)O)NC(=O)[C@H](CC(C)C)NC(=O)CNC(=O)[C@H](CCCN=C(N)N)NC(=O)[C@H](CC(C)C)NC(=O)[C@@H](NC(=O)[C@H](CO)NC(=O)[C@H](CC(C)C)NC(=O)[C@H](C)N)[C@@H](C)CC)C(=O)N[C@@H](C)C(=O)N[C@@H](CC(C)C)C(=O)N[C@H](C(=O)N[C@@H](CC(N)=O)C(=O)N[C@H]1CSSC[C@@H](C(=O)O)NC(=O)[C@H](CCCCN)NC(=O)[C@H](CCCCN)NC(=O)[C@H]([C@@H](C)O)NC(=O)[C@H](C)NC(=O)[C@H](CCCCN)NC1=O)[C@@H](C)O [ALSILRGLEKLAKMGIALTNCKATKKC]	28 µM (≈ 80.5 µg/mL)		
CC(C)[C@H](NC(=O)[C@@H]1CCCN1C(=O)[C@@H](N)Cc1ccccc1)C(=O)N[C@H](C(=O)N[C@@H](Cc1c[nH]c2ccccc12)C(=O)N[C@@H](CCCCN)C(=O)N[C@@H](Cc1c[nH]c2ccccc12)C(=O)N[C@@H](Cc1c[nH]c2ccccc12)C(=O)N[C@@H](CCCCN)C(=O)N[C@@H](Cc1c[nH]c2ccccc12)C(=O)N[C@@H](Cc1c[nH]c2ccccc12)C(=O)N[C@@H](CCCCN)C(=O)NCC(N)=O)[C@@H](C)O [FPVTWKWWKWWKG]	5.3 µM and 8 µM	20 (≈ 36.7 µg/mL)	
CC[C@H](C)[C@H](NC(=O)[C@H](CCCN=C(N)N)NC(=O)[C@H](CCCCN)NC(=O)[C@H](CC(C)C)NC(=O)[C@@H](NC(=O)CN)C(C)C)C(=O)N[C@@H](CCCCN)C(=O)N[C@H](C(=O)N[C@@H](CC(C)C)C(=O)N[C@H](C(N)=O)C(C)C)[C@@H](C)O [GVLKRIKTLV]	> 200 µM		
CC[C@H](C)[C@H](NC(=O)CNC(=O)[C@H](CCCCN)NC(=O)[C@@H](NC(=O)[C@H](CC(C)C)NC(=O)[C@H](CO)NC(=O)CNC(=O)[C@H](CC(C)C)NC(=O)CNC(=O)[C@H](C)NC(=O)[C@H](CCCCN)NC(=O)[C@H](Cc1ccccc1)NC(=O)[C@@H](NC(=O)[C@H](CC(=O)O)NC(=O)[C@H](CCCCN)NC(=O)[C@H](CC(C)C)NC(=O)CN)[C@@H](C)CC)C(C)C)C(=O)N[C@@H](C)C(=O)N[C@@H](C)C(=O)N[C@@H](Cc1cnc[nH]1)C(=O)N[C@H](C(=O)N[C@@H](C)C(=O)N[C@@H](CC(N)=O)C(N)=O)C(C)C [GLKDIFKAGLGSLVKGIAAHVAN]	25 µM (≈ 57 µg/mL)	200 (≈ 456 µg/mL)	
CC(C)C[C@H](NC(=O)[C@H](CCCCN)NC(=O)CNC(=O)[C@@H](N)CO)C(=O)N[C@@H](Cc1ccc(O)cc1)C(=O)N[C@@H](Cc1ccc(O)cc1)C(=O)N[C@@H](CCCN=C(N)N)C(=O)N[C@@H](CCCN=C(N)N)C(=O)N[C@@H](CCCCN)C(=O)N[C@@H](CCCCN)C(N)=O [SGKLYYRRKK]		> 100	> 100
